Measurements published in BindingDB's records for doi:10.1021/acsmedchemlett.1c00391 (Glaxosmithkline, 2021).
pEC50: −log10 of the molar value.

Experiments:
[1] = Inhibition of HCV genotype 1a NS5A infected in HuH-7-Luc/Neo-ET cells assessed as reduction in viral replication measured by Luciferase reporter gene assay
[2] = Inhibition of HCV genotype 1b NS5A infected in HuH-7-Luc/Neo-ET cells assessed as reduction in viral replication measured by Luciferase reporter gene assay

| Structure (SMILES) | pEC50 [1] | pEC50 [2] |
| --- | --- | --- |
| COC(=O)N[C@H]1CCC[C@H]2CC[C@@H](c3ncc(-c4ccc(-c5ccc(-c6cnc([C@@H]7CCCN7C(=O)[C@@H](NC(=O)OC)C(C)C)[nH]6)cc5)cc4)[nH]3)N2C1=O | 7.77 | 9.96 |
| COC(=O)N[C@H](C(=O)N1CCC[C@H]1c1ncc(-c2ccc(-c3ccc(-c4cnc([C@@H]5CC[C@@H]6CCC[C@@H](NC(=O)OC)C(=O)N65)[nH]4)cc3)cc2)[nH]1)C(C)C | 7.92 | 9.88 |
| COC(=O)N[C@H](C(=O)N1CCC[C@H]1c1ncc(-c2ccc(-c3ccc(-c4cnc([C@@H]5CC[C@H]6CCC[C@@H](NC(=O)OC)C(=O)N65)[nH]4)cc3)cc2)[nH]1)C(C)C | 9.17 | 10.23 |
| COC(=O)N[C@H]1CCC[C@@H]2CC[C@@H](c3ncc(-c4ccc(-c5ccc(-c6cnc([C@@H]7CCCN7C(=O)[C@@H](NC(=O)OC)C(C)C)[nH]6)cc5)cc4)[nH]3)N2C1=O | 9.33 | 10.43 |
| COC(=O)N[C@H]1CCC[C@H]2CC[C@@H](c3ncc(-c4ccc(-c5ccc(-c6cnc([C@@H]7CC8(CN7C(=O)[C@@H](NC(=O)OC)C(C)C)OCCO8)[nH]6)cc5)cc4)[nH]3)N2C1=O | 8.07 | 10.34 |
| COC(=O)N[C@H](C(=O)N1CC2(C[C@H]1c1ncc(-c3ccc(-c4ccc(-c5cnc([C@@H]6CC[C@@H]7CCC[C@@H](NC(=O)OC)C(=O)N76)[nH]5)cc4)cc3)[nH]1)OCCO2)C(C)C | 7.82 | 10.10 |
| COC(=O)N[C@H](C(=O)N1CC2(C[C@H]1c1ncc(-c3ccc(-c4ccc(-c5cnc([C@@H]6CC[C@H]7CCC[C@@H](NC(=O)OC)C(=O)N76)[nH]5)cc4)cc3)[nH]1)OCCO2)C(C)C | 9.15 | 10.33 |
| COC(=O)N[C@H]1CCC[C@@H]2CC[C@@H](c3ncc(-c4ccc(-c5ccc(-c6cnc([C@@H]7CC8(CN7C(=O)[C@@H](NC(=O)OC)C(C)C)OCCO8)[nH]6)cc5)cc4)[nH]3)N2C1=O | 8.82 | 10.19 |
| COC(=O)N[C@H](C(=O)N1CC2(C[C@H]1c1ncc(-c3ccc(-c4ccc(-c5cnc([C@@H]6CC[C@@H]7CCC[C@H](N(C)C)C(=O)N76)[nH]5)cc4)cc3)[nH]1)OCCO2)C(C)C | 7.49 | 9.68 |
| COC(=O)N[C@H](C(=O)N1CC2(C[C@H]1c1ncc(-c3ccc(-c4ccc(-c5cnc([C@@H]6CC[C@@H]7CCC[C@@H](N(C)C)C(=O)N76)[nH]5)cc4)cc3)[nH]1)OCCO2)C(C)C | 6.92 | 9.66 |
| COC(=O)N[C@H](C(=O)N1CC2(C[C@H]1c1ncc(-c3ccc(-c4ccc(-c5cnc([C@@H]6CC[C@H]7CCC[C@@H](N(C)C)C(=O)N76)[nH]5)cc4)cc3)[nH]1)OCCO2)C(C)C | 7.96 | 9.53 |
| COC(=O)N[C@H](C(=O)N1CC2(C[C@H]1c1ncc(-c3ccc(-c4ccc(-c5cnc([C@@H]6CC[C@H]7CCC[C@H](N(C)C)C(=O)N76)[nH]5)cc4)cc3)[nH]1)OCCO2)C(C)C | 8.11 | 10.08 |
| COC(=O)N[C@H](C(=O)N1CCC[C@H]1c1nc(-c2ccc(-c3ccc(-c4c[nH]c([C@@H]5CCCN5C(=O)[C@@H](NC(=O)OC)C(C)C)n4)cc3)cc2)c[nH]1)C(C)C [BMS-790052] | 10.10 | 10.49 |
